{"source": "patent US8598114B2", "about": "“Antimicrobial compounds” (priority 2007, dated 2013)", "format_in_all_cases": "cell-based", "key": {"Microsporum canis": {"tested_on": "Microsporum canis", "experiment": "MIC, CLSI microbroth dilution (filamentous fungi)", "details": "Microsporum canis - G.R. Micro collection", "protocol": "M38-A Vol. 22 No. 16 Reference Method for Broth Dilution Antifungal Susceptibility Testing of Filamentous Fungi; Approved Standard.\nYeast and filamentous fungal MIC were performed in MOPS buffered RPMI 1640 medium (MOPS buffer obtained from Sigma Aldrich Ltd., RPMI 1640 obtained from Invitrogen Ltd, Paisley, Scotland). The yeast inocula were in the range 7.5×10^2-4×10^3 CFU/mL and the filamentous fungi approximately 8×10^3-1×10^5CFU/mL"}, "Bacteroides fragilis": {"tested_on": "Bacteroides fragilis", "experiment": "MIC, CLSI microbroth dilution (anaerobic bacteria)", "set-up": "unit not given here", "details": "Bacteroides fragilis - ATCC 25285, SBB (Table 2)"}, "Enterococcus faecium": {"tested_on": "Enterococcus faecium", "experiment": "MIC, CLSI microbroth dilution (aerobic bacteria)", "excerpt": "(§1) Cation-adjusted Mueller-Hinton broth (Oxoid Ltd., Basingstoke, UK and Trek Diagnostic Systems Ltd., East Grinstead, UK) (supplemented with 5% laked horse blood for Streptococcus spp., Corynebacterium jeikeium and Listeria monocytogenes) was used for aerobic bacteria, with an initial inoculum of approximately 10^5 colony-forming units (CFU)/mL."}, "Acinetobacter baumanii": {"tested_on": "Acinetobacter baumanii", "experiment": "MIC, CLSI microbroth dilution (aerobic bacteria)", "details": "Acinetobacter baumanii - antibiotic-susceptible clinical isolate", "excerpt": "as §1"}, "Enterococcus gallinarum": {"tested_on": "Enterococcus gallinarum", "experiment": "MIC, CLSI microbroth dilution (aerobic bacteria)", "details": "Enterococcus gallinarum vancomycin-resistant (VanC) clinical isolate", "excerpt": "as §1"}, "[1]": {"tested_on": "Staphylococcus haemolyticus", "experiment": "MIC, CLSI microbroth dilution (aerobic bacteria)", "details": "Staphylococcus haemolyticus - antibiotic susceptible clinical isolate", "excerpt": "as §1"}, "Corynebacterium jeikeium": {"tested_on": "Corynebacterium jeikeium", "experiment": "MIC, CLSI microbroth dilution (aerobic bacteria)", "excerpt": "as §1"}, "Listeria monocytogenes": {"tested_on": "Listeria monocytogenes", "experiment": "MIC, CLSI microbroth dilution (aerobic bacteria)", "set-up": "unit not given beside the values", "details": "Listeria monocytogenes - antibiotic-susceptible clinical isolate", "excerpt": "as §1"}, "Moraxella catarrhalis": {"tested_on": "Moraxella catarrhalis", "experiment": "MIC, CLSI microbroth dilution (aerobic bacteria)", "set-up": "unit not given beside the values", "excerpt": "as §1"}, "Group C Streptococcus": {"tested_on": "Group C Streptococcus", "experiment": "MIC, CLSI microbroth dilution (aerobic bacteria)", "set-up": "unit not given beside the values", "excerpt": "as §1"}, "Streptococcus agalactiae": {"tested_on": "Streptococcus agalactiae", "experiment": "MIC, CLSI microbroth dilution (aerobic bacteria)", "set-up": "unit not given beside the values", "excerpt": "as §1"}, "Streptococcus bovis": {"tested_on": "Streptococcus bovis", "experiment": "MIC, CLSI microbroth dilution (aerobic bacteria)", "set-up": "unit not given beside the values", "excerpt": "as §1"}, "[2]": {"tested_on": "Staphylococcus saprophyticus", "experiment": "MIC, CLSI microbroth dilution (aerobic bacteria)", "set-up": "unit not given beside the values", "details": "Staphylococcus saprophyticus - antibiotic susceptible clinical isolate", "excerpt": "as §1"}, "Streptococcus pneumoniae": {"tested_on": "Streptococcus pneumoniae", "experiment": "MIC, CLSI microbroth dilution (aerobic bacteria)", "set-up": "unit not given beside the values", "excerpt": "as §1"}, "Streptococcus pyogenes": {"tested_on": "Streptococcus pyogenes", "experiment": "MIC, CLSI microbroth dilution (aerobic bacteria)", "set-up": "unit not given beside the values", "excerpt": "as §1"}, "Morganella morganii": {"tested_on": "Morganella morganii", "experiment": "MIC, CLSI microbroth dilution (aerobic bacteria)", "set-up": "unit not given beside the values", "details": "Morganella morganii - multi-drug resistant clinical isolate", "excerpt": "as §1"}, "[3]": {"tested_on": "Stenotrophomonas maltophilia", "experiment": "MIC, CLSI microbroth dilution (aerobic bacteria)", "set-up": "unit not given beside the values", "details": "Stenotrophomonas maltophilia - antibiotic-susceptible clinical isolate", "excerpt": "as §1"}, "Streptococcus mitis": {"tested_on": "Streptococcus mitis", "experiment": "MIC, CLSI microbroth dilution (aerobic bacteria)", "set-up": "unit not given beside the values", "excerpt": "as §1"}, "Streptococcus sanguis": {"tested_on": "Streptococcus sanguis", "experiment": "MIC, CLSI microbroth dilution (aerobic bacteria)", "set-up": "unit not given beside the values", "excerpt": "as §1"}, "Klebsiella aerogenes": {"tested_on": "Klebsiella aerogenes", "experiment": "MIC, CLSI microbroth dilution (aerobic bacteria)", "set-up": "unit not given beside the values", "excerpt": "as §1"}, "Salmonella sp": {"tested_on": "Salmonella sp", "experiment": "MIC, CLSI microbroth dilution (aerobic bacteria)", "set-up": "unit not given beside the values", "excerpt": "as §1"}, "[4]": {"tested_on": "Staphylococcus epidermidis", "experiment": "MIC, CLSI microbroth dilution (aerobic bacteria)", "set-up": "unit not given beside the values", "excerpt": "as §1"}, "Group G Streptococcus": {"tested_on": "Group G Streptococcus", "experiment": "MIC, CLSI microbroth dilution (aerobic bacteria)", "set-up": "unit not given beside the values", "excerpt": "as §1"}, "Streptococcus oralis": {"tested_on": "Streptococcus oralis", "experiment": "MIC, CLSI microbroth dilution (aerobic bacteria)", "set-up": "unit not given beside the values", "excerpt": "as §1"}, "Enterobacter sp": {"tested_on": "Enterobacter sp", "experiment": "MIC, CLSI microbroth dilution (aerobic bacteria)", "set-up": "unit not given beside the values", "excerpt": "as §1"}}, "data": [{"compound": "N=C(N)NCCCC(N)C(=O)NC(Cc1ccc(-c2ccc3ccccc3c2)cc1)C(=O)NC(CCCNC(=N)N)C(=O)NCCc1ccccc1", "note": "(stereo not drawn) [Compound 1]", "values": [{"measurement": "MIC", "setting": "Microsporum canis", "result": 8}, {"measurement": "MIC", "setting": "Bacteroides fragilis", "result": 64}, {"measurement": "MIC", "setting": "Enterococcus faecium; Enterococcus faecium vancomycin-resistant (VanA) clinical isolate", "result": 16}, {"measurement": "MIC", "setting": "Enterococcus faecium; Enterococcus faecium vancomycin-resistant (VanB) clinical isolate", "result": 8}, {"measurement": "MIC", "setting": "Enterococcus faecium; Enterococcus faecium vancomycin-susceptible clinical isolate", "result": 8}, {"measurement": "MIC", "setting": "Acinetobacter baumanii", "result": 64}, {"measurement": "MIC", "setting": "Enterococcus gallinarum", "result": 4}, {"measurement": "MIC", "setting": "[1]", "result": 4}, {"measurement": "MIC", "setting": "Corynebacterium jeikeium; Corynebacterium jeikeium - antibiotic-susceptible clinical isolate", "result": 32}, {"measurement": "MIC", "setting": "Corynebacterium jeikeium; Corynebacterium jeikeium - multi-drug resistant clinical isolate", "result": 32}, {"measurement": "MIC", "setting": "Listeria monocytogenes", "result": 32}, {"measurement": "MIC", "setting": "Moraxella catarrhalis; Moraxella catarrhalis - reduced fluoroquinolone susceptibility clinical", "result": 8}, {"measurement": "MIC", "setting": "Moraxella catarrhalis; Moraxella catarrhalis - β-lactamase positive clinical isolate", "result": 4}, {"measurement": "MIC", "setting": "Group C Streptococcus; Group C Streptococcus - antibiotic-susceptible clinical isolate", "result": 32}, {"measurement": "MIC", "setting": "Group C Streptococcus; Group C Streptococcus - macrolide-resistant clinical isolate", "result": 64}, {"measurement": "MIC", "setting": "Streptococcus agalactiae; Streptococcus agalactiae - antibiotic-susceptible clinical isolate", "result": 16}, {"measurement": "MIC", "setting": "Streptococcus agalactiae; Streptococcus agalactiae - macrolide-resistant clinical isolate", "result": 32}, {"measurement": "MIC", "setting": "Streptococcus bovis; Streptococcus bovis - antibiotic-susceptible clinical isolate", "result": 64}, {"measurement": "MIC", "setting": "Streptococcus bovis; Streptococcus bovis - macrolide-resistant clinical isolate", "result": 8}, {"measurement": "MIC", "setting": "[2]", "result": 1}, {"measurement": "MIC", "setting": "Streptococcus pneumoniae; Streptococcus pneumoniae - ATCC 49619 antibiotic-susceptible control", "result": 32}, {"measurement": "MIC", "setting": "Streptococcus pneumoniae; Streptococcus pneumoniae - multi-drug resistant clinical isolate", "result": 64}, {"measurement": "MIC", "setting": "Streptococcus pneumoniae; Streptococcus pneumoniae - penicillin-resistant clinical isolate", "result": 32}, {"measurement": "MIC", "setting": "Streptococcus pneumoniae; Streptococcus pneumoniae - penicillin-susceptible clinical isolate", "result": 64}, {"measurement": "MIC", "setting": "Streptococcus pneumoniae; Streptococcus pneumoniae -penicillin-intermediate clinical isolate", "result": 32}, {"measurement": "MIC", "setting": "Streptococcus pyogenes; Streptococcus pyogenes - Macrolide (M-type) resistance clinical isolate", "result": 32}, {"measurement": "MIC", "setting": "Streptococcus pyogenes; Streptococcus pyogenes - Macrolide (MLS) resistant clinical isolate", "result": 32}, {"measurement": "MIC", "setting": "Morganella morganii", "result": "≧128"}, {"measurement": "MIC", "setting": "[3]", "result": 64}, {"measurement": "MIC", "setting": "Streptococcus mitis; Streptococcus mitis - antibiotic-susceptible clinical isolate", "result": 64}, {"measurement": "MIC", "setting": "Streptococcus mitis; Streptococcus mitis - macrolide-resistant clinical isolate", "result": "≧128"}, {"measurement": "MIC", "setting": "Streptococcus sanguis; Streptococcus sanguis - antibiotic-susceptible clinical isolate", "result": 64}, {"measurement": "MIC", "setting": "Streptococcus sanguis; Streptococcus sanguis - macrolide-resistant clinical isolate", "result": 32}, {"measurement": "MIC", "setting": "Klebsiella aerogenes; Klebsiella aerogenes - multi-drug resistant clinical isolate", "result": 64}, {"measurement": "MIC", "setting": "Klebsiella aerogenes; Klebsiella aerogenes NCTC11228 - antibiotic-susceptible type strain", "result": 32}, {"measurement": "MIC", "setting": "Salmonella sp; Salmonella sp - antibiotic-susceptible clinical isolate", "result": 16}, {"measurement": "MIC", "setting": "Salmonella sp; Salmonella sp - multi-drug resistant clinical isolate", "result": 16}, {"measurement": "MIC", "setting": "[4]; Staphylococcus epidermidis antibiotic susceptible clinical isolate", "result": 16}, {"measurement": "MIC", "setting": "[4]; Staphylococcus epidermidis methicillin-resistant clinical isolate", "result": 2}, {"measurement": "MIC", "setting": "Group G Streptococcus; Group G Streptococcus - antibiotic-susceptible clinical isolate", "result": 32}, {"measurement": "MIC", "setting": "Group G Streptococcus; Group G Streptococcus - macrolide-resistant clinical isolate", "result": 32}, {"measurement": "MIC", "setting": "Streptococcus oralis; Streptococcus oralis - antibiotic-susceptible clinical isolate", "result": 64}, {"measurement": "MIC", "setting": "Streptococcus oralis; Streptococcus oralis - macrolide-resistant clinical isolate", "result": 32}, {"measurement": "MIC", "setting": "Enterobacter sp; Enterobacter sp - antibiotic-susceptible clinical isolate", "result": 32}, {"measurement": "MIC", "setting": "Enterobacter sp; Enterobacter sp - multi-drug resistant clinical isolate", "result": 64}]}]}
